Assays:
[1] = Absorption maximum (Abs. max) of the fluorochrome in solvent; assay type: physicochemical
[2] = Fluorescence emission maximum (Em. max) of the fluorochrome in solvent; assay type: physicochemical

SMILES	Abs. max ([1]; MeOH) [nm]	Abs. max ([1]; water) [nm]	Em. max ([2]; MeOH) [nm]	Em. max ([2]; water) [nm]
CN1C2CCC1/C(=C\C=C1\N(CCCCS(=O)(=O)O)c3ccccc3C1(C)C)C(Cl)=C2/C=C/C1=[N+](CCCCS(=O)(=O)O)c2ccccc2C1(C)C (centres unmarked) [Compound 11]	770	760	790	775
CN1C2CCC1/C(=C\C=C1\N(CCCCS(=O)(=O)O)c3ccccc3C1(C)C)C(SCCC(=O)O)=C2/C=C/C1=[N+](CCCCS(=O)(=O)O)c2ccccc2C1(C)C (centres unmarked) [Compound 12]	780	768	810	787
CN1C2CCC1/C(=C\C=C1\N(CCCS(=O)(=O)O)c3ccc(S(=O)(=O)O)cc3C1(C)C)C(SCCC(=O)O)=C2/C=C/C1=[N+](CCCS(=O)(=O)O)c2ccc(S(=O)(=O)O)cc2C1(C)C (centres unmarked) [Compound 13]	788	777	810	797
CCN1/C(=C/C=C2C(Cl)=C(/C=C/C3=[N+](CC)c4ccc5c(S(=O)(=O)O)cc(S(=O)(=O)O)cc5c4C3(C)C)C3CCC/2N3C)C(C)(C)c2c1ccc1c(S(=O)(=O)O)cc(S(=O)(=O)O)cc21 (centres unmarked) [Compound 38]	814	805	835	827
CN1C2CCC1/C(=C\C=C1\N(CCCS(=O)(=O)O)c3ccc(S(=O)(=O)O)cc3C1(C)C)C(Cl)=C2/C=C/C1=[N+](CCCS(=O)(=O)O)c2ccc(S(=O)(=O)O)cc2C1(C)C (centres unmarked) [Compound 39]	780	768	802	788

Source: US9365721B2, “Polycyclo dyes and use thereof” (VISEN MEDICAL, INC., priority 2007, dated 2016)
